Converted amounts (≈) assume the structure as drawn.
Experiments:
S. aureus ATCC 25923 [1] = test: Concentration-killing curves; assay type: cell-based, Staphylococcus aureus; details: concentrations up to 128 mg/L, after 18 h of incubation
Experimental: FIGS. 1A and 1B present concentration-killing curves for the indolic compounds 3f and 4 against S. aureus ATCC 25923. The activity is evaluated after 18 h incubation of S. aureus cultures in the presence of the tested compound.
The area between the horizontal full line and the dashed line corresponds to a bacteriostatic effect and the area below the dashed line corresponds to a bactericidal effect (i.e., ≧3 log reduction of the primary bacterial inoculum after 18 h incubation of cultures in the presence of the tested compound).
(§1) The method described by Motyl et al. [M. Motyl, K. Dorso, J. Barrett, R. Giacobbe, Basic Microbiological Techniques Used in Antibacterial Drug Discovery. Current Protocols in Pharmacology. UNIT 13A.3. January, 2006] was used.
Killing curves corresponded to the measure of the kinetic of bactericidal activity of indolic compounds over time (time-kill curves) or after 18 h incubation of cultures according to different drug concentrations (concentration-killing curves). […] Bacterial inocula are determined in each tube using the CFU count method at the beginning of the experiments, and then after 18 h for concentration-killing curves, or after 1 h, 2 h, 4 h, 8 h and 18 h for time-kill curves. […]

S. aureus ATCC 25923 [2] = test: Mutation frequency; assay type: cell-based, Staphylococcus aureus
Experimental: The mutation frequency is the number of individuals in a population with a particular mutation. In the present case, the mutation frequency was determined for a specific bacterial species and a specific indolic compound. Mueller Hinton agar plates containing various indolic compound concentrations, i.e., MIC×2, MIC×4, MIC×8, and MIC×16 were prepared. These plates were inoculated with various bacterial suspensions: 10^7, 10^8 or 10^9 UFC/mL. After 24 hours incubation of media at 37° C., CFU were numerated. The mutation frequency corresponded to the ratio of resistant mutants counted on a specific plate to the CFU count of the primary inoculum, expressed as a percentage.

[3] = test system: Staphylococcus simulans (CHUG-Ssim1); test: MIC, Staphylococcus panel (9.2); assay type: cell-based; details: S. simulans CHUG-Ssim1, 4% DMSO, 18 h
Experimental: (§2) The microdilution method recommended by the Clinical and Laboratory Standard Institute [M07-A9, Vol. 32, N° 2] was used. The activity of bis-indolic compounds 3f and 4 was tested against 35 Staphylococcus bacterial strains corresponding to 12 different species,
(§3) Bacterial inocula were prepared in Mueller Hinton broth (MH2, BioMérieux, Marcy L'Etoile, France). They were dispensed in 96 well microtiter plates (5×10^5 CFU/ml of final inoculum, 192 μL per well). Indolic compounds diluted in pure DMSO (8 μL per well, concentrated 25 times) were added to the wells as to obtain two-fold serial concentrations (0.5-32 mg/L of final concentrations). The final concentration of DMSO was 4% in each well.
(§4) To avoid cross-contaminations in microtiter plates, one row was left blank between each strain tested. Microplates were incubated for 18 h at 37° C. in ambient air. Then MICs were read visually and, in case of visual reading difficulties, confirmed using a spectrophotometer at a wavelength of 630 nm (BioTek® EL808 Absorbance Microplate Reader). MICs corresponded to the minimum bis-indolic compound concentration that allowed complete visual growth inhibition of bacteria. Drug-free cultures served as growth controls.
(§5) Coagulase-negative Staphylococcus strains included three reference strains purchased from CRBIP: a methicillin-susceptible S. epidermidis strain (ATCC 12228), a methicillin-resistant S. epidermidis strain (ATCC 49461), and a methicillin-susceptible S. sciuri strain (ATCC 29061). We also used clinical strains belonging to the following coagulase-negative Staphylococcus species: S. auricularis (two strains), S. warneri (five strains), S. capitis (five strains), S. haemolyticus (four strains), S. hominis (seven strains), S. cohnii (two strains), and S. saprophyticus, S. caprae and S. simulans (one strain each). Identification of the clinical strains was obtained using VITEK® 2 System (Biomérieux). The specified strain numbers correspond to an internal number of the bacterial strain collection of our laboratory.

[4] = test system: Staphylococcus warneri (CHUG-Swar5); test: MIC, Staphylococcus panel (9.2); assay type: cell-based; details: S. warneri CHUG-Swar5, 4% DMSO, 18 h
Experimental: as §2, §3, §4, §5

[5] = test system: Staphylococcus warneri (CHUG-Swar7); test: MIC, Staphylococcus panel (9.2); assay type: cell-based; details: S. warneri CHUG-Swar7, 4% DMSO, 18 h
Experimental: as §2, §3, §4, §5

S. aureus ATCC 25923 [6] = test: Time-kill curves; assay type: cell-based, Staphylococcus aureus
Experimental: FIG. 2 presents the time-kill curve of compound 3f (tested at MIC×4, 8 or 16) obtained with S. aureus ATCC 25923.
as §1
Killing curves corresponded to the measure of the kinetic of bactericidal activity of indolic compounds over time (time-kill curves) or after 18 h incubation of cultures according to different drug concentrations (concentration-killing curves). Sterile tubes were inoculated with: 1/sterile Mueller Hinton broth, to serve as negative control; 2/a drug-free bacterial inoculum, to serve as a growth control; 3/a bacterial inoculum (10^5 CFU/mL of final concentration) with various concentrations of the tested indolic compound. The tubes were incubated at 37° C. with agitation (50 rpm). Bacterial inocula are determined in each tube using the CFU count method at the beginning of the experiments, and then after 18 h for concentration-killing curves, or after 1 h, 2 h, 4 h, 8 h and 18 h for time-kill curves. A significant bactericidal effect corresponds to reduction of the initial bacterial load of 3 logs or more at any time of incubation.

[7] = test system: Staphylococcus aureus 1199B (overexpression of the NorA efflux pump); test: Efflux pump inhibition assay with sub-inhibitory ciprofloxacin; assay type: cell-based; details: S. aureus 1199B
Experimental: The efflux pump inhibition potential of the bis-indolic derivatives was tested using two steps.
The following experimental protocol was used: indolic derivatives (initially solubilised in DMSO at 10 mg/mL) were dispensed in a 96-wells microplate by two fold serial dilutions in Muller-Hinton medium (MH, Bio Rad) using a Biomek 2000 (Beckman) handling robot. 100 μL of the bacterial inoculum (an overnight culture at 37° C. in 5 mL MH diluted 100-fold) was then added in each well. The total volume was 200 μL in each well and the final bacteria concentration 10^6 CFU/mL (CFU: colony forming unit). The highest final indolic derivative concentration was 128 mg/L. Growth was assayed with a microplate reader by monitoring absorption at 620 nm after 1, 2, 5, 7 and 24 h incubation at 37° C. In addition, the plates were read visually after 24 hours incubation. Cultures containing 5 μL DMSO were used as growth controls. In addition, two controls containing a sub-inhibitory or a inhibitory antibiotic concentration for the tested strain were performed. The antibiotics used were ampicillin (0.5 and 32 μg/mL) for E. coli, kanamycin (0.5 and 16 μg/mL) for S. aureus ATCC 25923, ciprofloxacin (4 and 64 mg/L) for S. aureus 1199B, ciprofloxacin (0.5 and 2 mg/L) for S. aureus K2378. All experiments were performed in duplicate.
Efflux pump inhibition assays were then performed against resistant Staphylococcus aureus strains SA 1199B and SA K2378 for bis-indolic derivatives. […] The minimal inhibitory concentration (MIC) of the bis-indolic compound allowing a complete inhibition of the bacterial growth in the presence of ciprofloxacin was determined.

[8] = in the presence of ciprofloxacin 4 mg/L

## CC(NC(=O)c1c[nH]c2ccc(Br)cc12)c1c[nH]c2ccc(Br)cc12 (centres unmarked) [Compound 4, 5-Bromo-N-(1-(5-bromo-1H-indol-3-yl)ethyl)-1H-indole-3-carboxamide]
S. aureus ATCC 25923 [1]
  bactericidal activity (concentration-killing curve): no detectable bactericidal activity
S. aureus ATCC 25923 [2]
  mutation frequency: < 1.5×10^−10
other
  melting point: 144 °C

## CC(C)(C)OC(=O)NCC(NC(=O)c1c[nH]c2ccc(Br)cc12)c1c[nH]c2ccc(Br)cc12 (centres unmarked) [Compound 3f, tert-Butyl(2-(5-bromo-1H-indol-3-yl)-2-(5-bromo-1H-indolyl-3-carboxamido)ethyl)carbamate]
[3]
  MIC: 16 µg/mL (≈ 27.8 µM)
[4]
  MIC: 8 µg/mL (≈ 13.9 µM)
[5]
  MIC: 8 µg/mL (≈ 13.9 µM)
S. aureus ATCC 25923 [1]
  bactericidal activity (concentration-killing curve): no detectable bactericidal activity
S. aureus ATCC 25923 [6]; 4×MIC, incubation prolonged to 18 h
  bacterial regrowth (time-kill curve): progressive bacterial regrowth
S. aureus ATCC 25923 [6]; after 8 h incubation, 4×, 8× and 16× the MIC
  bactericidal activity (time-kill curve): significant bactericidal activity
S. aureus ATCC 25923 [2]
  mutation frequency: 2×10^−9

## Cn1cc(C(=O)NC(CNC(=O)OC(C)(C)C)c2c[nH]c3ccc(Br)cc23)c2cc(Br)ccc21 (centres unmarked) [Compound 7, tert-Butyl (2-(5-bromo-1-methyl-1H-indole-3-carboxamido)-2-(5-bromo-1H-indol-3-yl)ethyl) carbamate]
[7]; in the presence of ciprofloxacin 1 mg/L
  MIC, mg/L (Ciprofloxacin concentration, mg/L): 4 (1) mg/L
[7]; in the presence of ciprofloxacin 2 mg/L
  MIC, mg/L (Ciprofloxacin concentration, mg/L): 1 (2) mg/L
[7]; [8]
  MIC, mg/L (Ciprofloxacin concentration, mg/L): 0.25 (4) mg/L

## NCCCCNC(=O)C(NC(=O)c1c[nH]c2ccc(Br)cc12)c1c[nH]c2ccc(Br)cc12 (centres unmarked) [Compound 16, N-(2-((4-Aminobutyl)amino)-1-(5-bromo-1H-indol-3-yl)-2-oxoethyl)-5-bromo-1H-indole-3-carboxamide]
[7]; [8]
  MIC, mg/L (Ciprofloxacin concentration, mg/L): 1 (4) mg/L
